# How the values were obtained:
# [1] = molecular target: T1, Delta-type opioid receptor (Homo sapiens, UniProt P41143); assay: Displacement of [3H]diprenorphine from human cloned delta opioid receptor expressed in CHO cells; assay type: cell-based
# Mu-type opioid receptor [2] = molecular target: T2, Mu-type opioid receptor (Homo sapiens, UniProt P35372); assay: Antagonist activity assessed as inhibition of loperamide-stimulated [35S]GTPgammaS binding to human mu opioid receptor expressed in CHO cells; assay type: functional, cell-based
# [3] = molecular target: T3, Kappa-type opioid receptor (Homo sapiens, UniProt P41145); assay: Displacement of [3H]diprenorphine from human cloned kappa opioid receptor expressed in CHO cells; assay type: cell-based
# Mu-type opioid receptor [4] = molecular target: T2, Mu-type opioid receptor; assay: Displacement of [3H]diprenorphine from human cloned mu opioid receptor expressed in CHO cells; assay type: cell-based
# [5] = molecular target: T1, Delta-type opioid receptor; assay: Antagonist activity assessed as inhibition of BW373U86-stimulated [35S]GTP-gamma-S binding to human delta opioid receptor expressed in CHO cells; assay type: functional, cell-based
# [6] = molecular target: T3, Kappa-type opioid receptor; assay: Antagonist activity assessed as inhibition of U50488-stimulated [35S]GTP-gamma-S binding to human kappa opioid receptor expressed in CHO cells; assay type: functional, cell-based
# [7] = molecular target: T3, Kappa-type opioid receptor; assay: Inhibition of [3H]diprenorphine binding to human cloned kappa opioid receptor expressed in CHO cells at 10 uM; assay type: cell-based
# Mu-type opioid receptor [8] = molecular target: T2, Mu-type opioid receptor; assay: Inhibition of [3H]diprenorphine binding to human cloned mu opioid receptor expressed in CHO cells at 10 uM; assay type: cell-based
# [9] = molecular target: T1, Delta-type opioid receptor; assay: Inhibition of [3H]diprenorphine binding to human cloned delta opioid receptor expressed in CHO cells at 10 uM; assay type: cell-based
# T1 sequence (P41143 whole entry): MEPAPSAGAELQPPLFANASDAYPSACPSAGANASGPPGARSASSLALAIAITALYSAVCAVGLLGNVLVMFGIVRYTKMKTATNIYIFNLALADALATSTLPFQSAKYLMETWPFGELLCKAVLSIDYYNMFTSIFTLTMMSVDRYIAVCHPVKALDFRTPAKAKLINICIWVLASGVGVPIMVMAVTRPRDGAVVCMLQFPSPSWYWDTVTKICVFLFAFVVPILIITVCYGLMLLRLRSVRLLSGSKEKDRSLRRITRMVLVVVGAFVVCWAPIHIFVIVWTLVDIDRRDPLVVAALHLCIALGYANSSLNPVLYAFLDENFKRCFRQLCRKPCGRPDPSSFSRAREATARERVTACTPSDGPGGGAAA
# T3 sequence (P41145 whole entry): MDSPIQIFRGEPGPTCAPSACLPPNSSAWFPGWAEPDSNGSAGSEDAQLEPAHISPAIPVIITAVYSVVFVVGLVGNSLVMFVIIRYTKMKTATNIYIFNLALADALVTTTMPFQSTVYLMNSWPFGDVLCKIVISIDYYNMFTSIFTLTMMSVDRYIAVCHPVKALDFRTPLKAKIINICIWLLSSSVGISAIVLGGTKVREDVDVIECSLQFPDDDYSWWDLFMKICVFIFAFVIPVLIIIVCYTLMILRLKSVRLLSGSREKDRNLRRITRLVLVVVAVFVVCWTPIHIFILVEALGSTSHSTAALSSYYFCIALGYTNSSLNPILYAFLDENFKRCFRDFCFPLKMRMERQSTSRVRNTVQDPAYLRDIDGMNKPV
# T2 sequence (P35372 whole entry): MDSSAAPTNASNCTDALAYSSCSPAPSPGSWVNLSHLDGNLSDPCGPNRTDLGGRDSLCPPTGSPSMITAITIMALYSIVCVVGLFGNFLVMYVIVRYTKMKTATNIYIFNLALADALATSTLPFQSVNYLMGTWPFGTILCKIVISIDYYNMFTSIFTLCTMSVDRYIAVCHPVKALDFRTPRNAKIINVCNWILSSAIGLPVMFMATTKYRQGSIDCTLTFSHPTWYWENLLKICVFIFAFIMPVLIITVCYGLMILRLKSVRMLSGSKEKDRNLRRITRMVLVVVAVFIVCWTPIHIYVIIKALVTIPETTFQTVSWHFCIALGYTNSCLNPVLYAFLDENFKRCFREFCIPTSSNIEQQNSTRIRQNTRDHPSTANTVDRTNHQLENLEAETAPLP
SMILES,Ki [1] [nM],IC50 (Mu-type opioid receptor [2]) [nM],Ki [3] [nM],Ki (Mu-type opioid receptor [4]) [nM],IC50 [5] [nM],IC50 [6] [nM],inhibition [7] [%],inhibition (Mu-type opioid receptor [8]) [%],inhibition [9] [%]
C[C@H]1CN2C[C@H](c3ccccc3)N(Cc3ccccc3)C[C@H]2C[C@@]1(C)c1cccc(O)c1,340,40,120,4.7,1300,99,,,
C[C@H]1CN2CCN(CCCc3ccccc3)C[C@H]2C[C@@]1(C)c1cccc(O)c1,960,13,950,36,,,,,
Cc1ccccc1CN1CCN2C[C@H](C)[C@](C)(c3cccc(O)c3)C[C@@H]2C1,89,1.8,30,0.98,62,15,,,
Cc1ccc(CN2CCN3C[C@H](C)[C@](C)(c4cccc(O)c4)C[C@@H]3C2)cc1,350,9.5,300,14,,,,,
C[C@H]1CN2CCN(Cc3ccsc3)C[C@H]2C[C@@]1(C)c1cccc(O)c1,340,1.4,38,3,,,,,
C[C@H]1CN2CCN(Cc3ccoc3)C[C@H]2C[C@@]1(C)c1cccc(O)c1,740,6.1,120,12,,,,,
C[C@H]1CN2CCN(Cc3ccc(O)cc3)C[C@H]2C[C@@]1(C)c1cccc(O)c1,220,5.7,270,10,,,,,
C[C@H]1CN2CCN(Cc3ccccc3)C[C@H]2C[C@@]1(C)c1cccc(O)c1,,0.73,43,1.2,150,8.4,,,
C[C@H]1CN2C[C@H](c3ccccc3)N(Cc3ccccc3)C[C@H]2C[C@@]1(C)c1cccc(C(=O)O)c1,2500,,,,,,9,44,
COC(=O)c1cccc(CN2CCN3C[C@H](C)[C@](C)(c4cccc(O)c4)C[C@@H]3C2)c1,,6.9,140,11,,,,,43
C[C@H]1CN2CCN(Cc3cccc(Oc4ccccc4)c3)C[C@H]2C[C@@]1(C)c1cccc(O)c1,,9.7,24,21,,,,,55
C[C@H]1CN2CCN(S(C)(=O)=O)C[C@H]2C[C@@]1(C)c1cccc(O)c1,,,,,,,14,45,5
C[C@H]1CN2C[C@H](c3ccccc3)N(C)C[C@H]2C[C@@]1(C)c1cccc(O)c1,2300,,13,,580,2.4,,,
C[C@H]1CN2CCN(Cc3ccncc3)C[C@H]2C[C@@]1(C)c1cccc(O)c1,1300,18,,15,,,67,,
C[C@H]1CN2CCN(C(=O)Nc3ccccc3)C[C@H]2C[C@@]1(C)c1cccc(O)c1,540,16,420,31,,,,,
C[C@H]1CN2CCN(CCc3ccccc3)C[C@H]2C[C@@]1(C)c1cccc(O)c1,,2,,,310,20,,,
C[C@H]1CN2CCN(CC3CCCCC3)C[C@H]2C[C@@]1(C)c1cccc(O)c1,65,1.1,84,1.1,85,36,,,
C[C@H]1CN2CCN(Cc3cccnc3)C[C@H]2C[C@@]1(C)c1cccc(O)c1,840,7.5,400,13,,,,,
C[C@H]1CN2CCN(Cc3ccc(N(C)C)cc3)C[C@H]2C[C@@]1(C)c1cccc(O)c1,,190,,750,,,34,,26
C[C@H]1CN2CCN(Cc3ccnc4ccccc34)C[C@H]2C[C@@]1(C)c1cccc(O)c1,,80,,88,,,55,,28
C[C@H]1CN2CCNC[C@H]2C[C@@]1(C)c1cccc(O)c1,,,,,,,46,49,35
C[C@H]1CN2C[C@H](c3ccccc3)N(Cc3ccccc3)C[C@H]2C[C@@]1(C)c1cccc(C(N)=O)c1,1100,28,460,17,,,,,
C[C@H]1CN2CCN(c3ccccc3)C[C@H]2C[C@@]1(C)c1cccc(O)c1,960,54,3700,220,,,,,
C[C@H]1CN2CCN(Cc3cccc(Cl)c3)C[C@H]2C[C@@]1(C)c1cccc(O)c1,360,1.8,83,1.5,,,,,
C[C@H]1CN2CCCN(Cc3ccccc3)C[C@H]2C[C@@]1(C)c1cccc(O)c1,2900,15,540,160,,,,,
C[C@H]1CN2CCN(Cc3ccccn3)C[C@H]2C[C@@]1(C)c1cccc(O)c1,1100,13,390,20,,,,,

SMILES,Ki [1] [nM],IC50 (Mu-type opioid receptor [2]) [nM],Ki [3] [nM],Ki (Mu-type opioid receptor [4]) [nM],IC50 [5] [nM],IC50 [6] [nM],inhibition [7] [%],inhibition (Mu-type opioid receptor [8]) [%],inhibition [9] [%]
CC(C)[C@H]1CN2C[C@H](C)[C@](C)(c3cccc(O)c3)C[C@@H]2CN1,,66,57,380,,,,,15
C[C@H]1CN2CCN(Cc3cccc(OCc4ccccc4)c3)C[C@H]2C[C@@]1(C)c1cccc(O)c1,,22,33,13,,,,,43
C[C@H]1CN2CCN(Cc3ccc(Cl)cc3)C[C@H]2C[C@@]1(C)c1cccc(O)c1,420,42,280,17,,,,,
C[C@H]1CN2C[C@@H](c3ccccc3)NC[C@H]2C[C@@]1(C)c1cccc(O)c1,660,52,430,180,,,,,
CC(=O)N1C[C@H]2C[C@@](C)(c3cccc(O)c3)[C@@H](C)CN2C[C@@H]1c1ccccc1,,220,620,94,,,,,57
C[C@H]1CN2CCN(Cc3cccc(O)c3)C[C@H]2C[C@@]1(C)c1cccc(O)c1,310,4.5,56,4.3,,,,,
C[C@H]1CN2C[C@H](c3ccccc3)N(Cc3ccccc3)C[C@H]2C[C@@]1(C)c1ccccc1,,,,,,,11,,26
CC(=O)N1CCN2C[C@H](C)[C@](C)(c3cccc(O)c3)C[C@@H]2C1,,,,520,,,36,,47
C[C@H]1CN2C[C@H](c3ccccc3)NC[C@H]2C[C@@]1(C)c1cccc(O)c1,,1.1,,,98,3.2,,,
C[C@H]1CN2CCN(C(=O)Cc3ccccc3)C[C@H]2C[C@@]1(C)c1cccc(O)c1,71,6.7,540,17,,,,,
C[C@H]1CN2CCN(Cc3ccccc3O)C[C@H]2C[C@@]1(C)c1cccc(O)c1,300,1.6,76,1.8,570,9.4,,,
C[C@H]1CN2CCN(S(=O)(=O)c3ccccc3)C[C@H]2C[C@@]1(C)c1cccc(O)c1,1700,140,,210,,,34,,
C[C@H]1CN2CCN(Cc3cccs3)C[C@H]2C[C@@]1(C)c1cccc(O)c1,260,0.63,37,1.4,340,6.6,,,
C[C@H]1CN2C[C@@H](Cc3ccccc3)NC[C@H]2C[C@@]1(C)c1cccc(O)c1,410,22,130,25,,,,,
C[C@H]1CN2CCN(C(=O)c3ccccc3)C[C@H]2C[C@@]1(C)c1cccc(O)c1,,2.1,180,,14,50,,,
C[C@H]1CN2C[C@H](Cc3ccccc3)NC[C@H]2C[C@@]1(C)c1cccc(O)c1,,2.8,86,,33,16,,,
C[C@H]1CN2CCN(Cc3cccc4ccccc34)C[C@H]2C[C@@]1(C)c1cccc(O)c1,,16,230,3.5,,,,,60
Cc1cccc(CN2CCN3C[C@H](C)[C@](C)(c4cccc(O)c4)C[C@@H]3C2)c1,510,1.5,130,1.3,,,,,
C[C@H]1CN2C[C@H](C3CCCCC3)NC[C@H]2C[C@@]1(C)c1cccc(O)c1,68,1.3,16,2.7,28,1.2,,,
C[C@H]1CN2CCN(Cc3ccco3)C[C@H]2C[C@@]1(C)c1cccc(O)c1,1500,7.2,430,7.4,,,,,
C[C@H]1CN2CCN(Cc3ccccc3Cl)C[C@H]2C[C@@]1(C)c1cccc(O)c1,57,1.8,16,0.47,190,10,,,
C[C@H]1CN2CCN(C(=O)CCc3ccccc3)C[C@H]2C[C@@]1(C)c1cccc(O)c1,140,78,,160,,,65,,
C[C@H]1CN2C[C@H](c3ccccc3)CC[C@H]2C[C@@]1(C)c1cccc(O)c1,,,,,51,3.2,,,
C[C@H]1CN2CCN(Cc3ccc4ccccc4c3)C[C@H]2C[C@@]1(C)c1cccc(O)c1,,74,980,90,,,,,49
C[C@H]1CN2C[C@H](c3ccccc3)NC[C@H]2C[C@@]1(C)c1cccc(C(N)=O)c1,60,1.5,11,1.8,110,2.3,,,
